Activity calls are given as the source filed them. The calls are words filed in the database; no cut-off is given here.
Legend:
[1] = system: L02; assay: Cytotoxicity against human L02 cells assessed as reduction in cell viability up to 100 uM measured after 48 hrs by MTT assay; format: cell-based; settings: l02, 48 h
[2] = target: T1, Nuclear factor erythroid 2-related factor 2 (Homo sapiens) (UniProt Q16236); assay: Activation of Nrf2 in human L02 cells assessed as increase in NEFL2L expression at 10 uM measured after 4 to 72 hrs hrs by Western blot analysis; format: cell-based
T1 sequence (whole entry): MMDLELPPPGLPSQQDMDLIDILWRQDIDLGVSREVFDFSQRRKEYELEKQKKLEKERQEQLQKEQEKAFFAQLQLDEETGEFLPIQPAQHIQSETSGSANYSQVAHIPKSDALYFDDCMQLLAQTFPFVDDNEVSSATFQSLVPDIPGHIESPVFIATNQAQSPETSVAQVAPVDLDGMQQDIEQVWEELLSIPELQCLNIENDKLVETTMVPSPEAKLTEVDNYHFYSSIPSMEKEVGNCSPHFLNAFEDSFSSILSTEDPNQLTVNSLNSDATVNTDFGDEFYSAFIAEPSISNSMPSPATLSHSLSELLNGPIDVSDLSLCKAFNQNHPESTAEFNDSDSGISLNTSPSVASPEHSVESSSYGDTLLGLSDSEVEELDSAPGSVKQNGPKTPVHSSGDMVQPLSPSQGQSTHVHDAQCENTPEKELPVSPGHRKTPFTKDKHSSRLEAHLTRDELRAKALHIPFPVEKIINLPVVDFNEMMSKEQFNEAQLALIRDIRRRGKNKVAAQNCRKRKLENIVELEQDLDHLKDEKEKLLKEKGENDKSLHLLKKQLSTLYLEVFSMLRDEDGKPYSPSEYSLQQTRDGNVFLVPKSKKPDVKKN

[3] = target: T1, Nuclear factor erythroid 2-related factor 2 (Homo sapiens); assay: Activation of Nrf2 in human L02 cells assessed as increase in HO-1 expression at 10 uM measured after 4 to 72 hrs hrs by Western blot analysis; format: cell-based
[4] = system: L02; assay: Upregulation of NEFL2L mRNA expression in human L02 cells harboring Nrf2 siRNA at 10 uM measured after 10 hrs by trizol reagent based qRT-PCR analysis; format: functional, cell-based
[5] = system: L02; assay: Upregulation of GCLM mRNA expression in human L02 cells harboring Nrf2 siRNA at 10 uM measured after 10 hrs by trizol reagent based qRT-PCR analysis; format: functional, cell-based
[6] = system: L02; assay: Upregulation of NQO-1 expression in human L02 cells harboring Nrf2 siRNA at 10 uM measured after 10 hrs by Western blot analysis; format: functional, cell-based
[7] = system: L02; assay: Upregulation of GCLM expression in human L02 cells harboring Nrf2 siRNA at 10 uM measured after 10 hrs by Western blot analysis; format: functional, cell-based
[8] = target: T1, Nuclear factor erythroid 2-related factor 2 (Homo sapiens); assay: Activation of Nrf2 in human L02 cells harboring control siRNA assessed as increase in NQO-1 expression at 10 uM measured after 10 hrs by Western blot analysis; format: cell-based
[9] = system: L02; assay: Cytoprotective activity against APAP-induced oxidative stress in human L02 cells assessed as decrease in ALP level at 5 to 10 uM preincubated for 12 hrs followed by APAP stimulation and measured after 24 hrs; format: functional, cell-based
[10] = system: Mus musculus; assay: Protection against APAP-induced hepatotoxicity in C57BL/6 mouse assessed as decrease in GCLM expression in liver at 10 to 40 mg/kg, ip treated 2 hrs prior to 22 hrs starvation followed by APAP challenge and measured after 6 hrs by Dako/Mayer's hematoxylin staining-based immunohistochemical analysis; format: functional, organism-based
[11] = system: Mus musculus; assay: Protection against APAP-induced hepatotoxicity in C57BL/6 mouse assessed as decrease in disease score at 10 to 40 mg/kg, ip treated 2 hrs prior to 22 hrs starvation followed by APAP challenge and measured after 6 hrs by H and E staining-based light microscopic analysis; format: functional, organism-based
[12] = system: L02; settings: Homo sapiens, 5 to 10 uM
Description: Cytoprotective activity against APAP-induced hepatotoxicity in human L02 cells assessed as inhibition of IL6 production at 5 to 10 uM preincubated for 12 hrs followed by APAP stimulation and measured after 24 hrs by ELISA

In the case of `COc1ccc(S(=O)(=O)N(CC(=O)O)c2ccc(N3CCC[C@H]3C(=O)O)c3ccccc23)cc1`, the Activity [1] is reported as “Non-Toxic”, the Activity [2] is reported as “Active” and the Activity [3] is reported as “Active”. For the same molecule, the Activity [4] was “inactive”, the Activity [5] was “inactive” and the Activity [6] was “inactive”. For the same molecule, the Activity [7] was “inactive”, the Activity [8] was “Active” and the Activity [9] was “Active”. For the same molecule, the Activity [10] was “Active”, the Activity [11] was “Active” and the inhibition [12] was “Active”.
